# Test results from patent publication EP0906078B1, “TOPICAL USE OF TEMPOL IN THE PREVENTION OF PHOTOAGING” (Bernstein, Eric F., priority 1996, dated 1997).
# “And” between values parts separate entries of the source, which are not always exact repeats. Equal values may be shown once.
# How the values were obtained:
# human elastin promoter [1] = test: UVA/8-MOP (PUVA)-induced promoter activation (CAT activity) in fibroblast cultures from transgenic mice; format: cell-based
# Description: Because a response to UVA alone in vitro is not measurable and the in vivo response is relatively small, 8-methoxypsoralen (8-MOP) was added to the system to enhance the promoter response to UVA.
# In these experiments, control cells received no UVA or 8-MOP. UVA controls received either 0.5, 0.75 or 1.0 J/cm^2 of UVA without prior incubation with 8-MOP. 8-MOP controls received 1 µg/ml of 8-MOP but no UVA. Tempol controls received 100 mM Tempol and no UVA or 8-MOP. PUVA-treated cells were preincubated with 1.0 µg/ml of 8-MOP in PBS and then exposed to 0.5, 0.75 or 1.0 J/cm^2. Tempol treated cells were pretreated with 100 mM Tempol 12.5 minutes prior to UVA exposure. 8-MOP was also added to these cells at the same time as the Tempol.
# The addition of Tempol to the cultures reduced the PUVA-induced increase in CAT activity to 1.5-, 1.2- and 2.0-fold that of controls, respectively, thus almost completely eliminating the PUVA-induced increase in CAT activity.
# Fibroblast cultures were established from the skin of transgenic mice by explanting tissue specimens onto plastic tissue culture dishes and allowing cells to migrate to the surrounding area. The primary cultures were maintained in Dulbecco's modified Eagle's medium supplemented with 10% fetal calf serum, 2 mM L-glutamine and antibiotics, at 37°C. The primary cell cultures were passaged by trypsinization, and the subcultures in passages three or four were utilized for UVB treatment. After UV exposure, the cells were incubated in tissue culture medium for 24 hours, and then harvested for determination of CAT activity.
# To measure the expression of the human elastin promoter/CAT reporter gene construct in the skin of transgenic mice and in fibroblast cultures established from these animals, CAT activity was determined. For extraction of the CAT from skin, the specimens were homogenized in 0.25 Tris-HCl, pH 7.5, using a tissue homogenizer (Brinkmann Instruments, Inc. Westbury, NY). The homogenates were centrifuged at 10,000 X g for 15 minutes at 4°C and the protein concentration in the supernatant determined by a commercial protein assay kit (Bio-Rad Laboratories, Richmond, CA). Aliquots of the supernatant containing 100 µg of protein were used for assay of CAT activity by incubation with [^14C] chloramphenicol in accordance with well-known procedures. The acetylated and non-acetylated forms of radioactive chloramphenicol were separated by thin-layer chromatography and CAT activity was determined by the radioactivity in the acetylated forms as a percent of the total radioactivity in each sample.
# Irradiation with UVA was performed using a closely spaced array of seven Sylvania FR40T12 PUVA lamps filtered through window glass of 2 mm thickness to remove wavelengths below 320 nm. The energy output at 38 cm from the array was measured with a Solar Light Model 3D UVA and UVB detector (Solar Light Company, Philadelphia, PA). The output of the lamps filtered through the window glass was 2.02 mW/cm^2, with no detectable UVB.
# [2] = in vivo; cited from earlier work
# Absorption spectrum = format: physicochemical
# human elastin promoter [3] = test: Transgenic mouse model of photoaging: human elastin promoter/CAT reporter activity in skin after UVB; conditions: in vivo
# human elastin promoter [4] = test: UVB-induced promoter activation (CAT activity) in fibroblast cultures from transgenic mice
smiles,measurement,setting,value
"COc1c2occc2cc2ccc(=O)oc12 [8-MOP, 8-methoxypsoralen, reference compound]",CAT activity,"human elastin promoter [1]; 1 µg/ml 8-MOP and 0.5 J/cm^2 UVA, no Tempol, relative to controls",2.7 fold
same,CAT activity,"human elastin promoter [1]; 1 µg/ml 8-MOP and 0.75 J/cm^2 UVA, no Tempol, relative to controls",9.0 fold
same,CAT activity,"human elastin promoter [1]; 1 µg/ml 8-MOP and 1.0 J/cm^2 UVA, no Tempol, relative to controls",21.4 fold
same,CAT activity,"human elastin promoter [1]; 8-MOP alone (1 µg/ml), no UVA",failed to produce significant CAT activity
"CC1(C)CC(O)CC(C)(C)N1[O] [Tempol, 4-hydroxy-2,2,6,6-tetramethyl-piperidinyloxy, free radical]",detection in the blood following application,[2],undetectable
same,CAT activity,human elastin promoter [1],1.5 fold and 1.2 fold and 2.0 fold
same,protection against the PUVA-induced increases in CAT activity,human elastin promoter [1],failed to afford protection
same,absorption in the UVA range,Absorption spectrum,very little absorption
same,CAT activity,human elastin promoter [3],1.7 fold and 3.3 fold
same,% Protection from UVB,human elastin promoter [4],41 p<0.01% and 74 p<0.001% and 69 p<0.001% and 42 p<0.001%
same,further reduction of CAT activity by scavenging properties,human elastin promoter [4],38%
same,reduction in CAT activity from cells treated with UVB alone,human elastin promoter [4],~6 fold
